The numbers were not newly measured in patent publication US20030114415A1, “Compositions and methods for treating and preventing memory impairment using citicoline” (priority 2001, published 2003), which cites them from elsewhere.

The conditions of series [1]: rat; 500 mg/kg/day citicoline.
For series [2], the system named is stroke and head trauma patients.
The conditions of series [3]: human; 1000 mg citicoline per day.

Read-outs that look alike come from different tables or passages of the source.

In the case of `C[N+](C)(C)CCOP(=O)(O)OP(=O)([O-])OC[C@H]1O[C@@H](n2ccc(N)nc2=O)[C@H](O)[C@@H]1O` [citicoline, cytidine-5′-diphosphocholine], the plasma choline concentration in series [1] and in series [3] was 1.5 ng/mL each time. Besides, the “negative side effects, including dizziness” value in series [2] (patients, 500 mg per day) was “minimizing any negative side effects”. In series [2] (stroke and head trauma patients, 250 mg/day to 1000 mg/day for several weeks), the tolerability result was “tolerated citicoline well”. Where the note is “oral”, the “absorption when administered orally” value was “absorbed almost completely”. Also, under “oral compared with intravenous”, the “bioavailability when administered orally” value was “approximately the same as when administered intravenously”.
